Measured values as given in EP0656355A1, “BIPHENYLMETHANE DERIVATIVE AND MEDICINE CONTAINING THE SAME” (WAKUNAGA SEIYAKU KABUSHIKI KAISHA, priority 1992, dated 1994).
pIC50: −log10 of the molar value.

Legend:
[1] = test system: renal hypertensive rats; assay: Antihypertensive action on renal hypertensive rats (invasive); type: in vivo, male SD rat; details: decreased rate of mean blood pressure; orally administered at 3 mg/kg; femoral artery cannula
From the text: (4) Antihypertensive action on renal hypertensive rats (invasive)
Renal hypertensive rats were each prepared by constricting the left renal artery of a male SD rat (age: 6 weeks old, body weight: 190-220 g) with a silver clip (inner diameter: 0.017 inch) under anesthesia. Antihypertensive action was studied employing the rats whose mean blood pressure arose to 150 mmHg or higher in 4-8 weeks after the constriction of the renal artery. On the day before the test, a cannula for measure of blood pressure was inserted into the femoral artery of each of the renal hypertensive rats under anesthesia and was allowed to remain in the artery. The rats were maintained on food and water ad libitum until immediately before the test was started. The cannula so inserted was connected to a blood pressure transducer and mean blood pressure was recorded on a polygraph. After the blood pressure became stable, the test compound which was suspended in 0.5% carboxymethyl cellulose was orally administered to each of the rats at 3 mg/kg. In accordance with the following equation, a decreased rate of blood pressure (%) was calculated from the blood pressure values before and after the administration of the test compound. [formula]

[2] = molecular target: T1, angiotensin II (AII) receptor (Rattus norvegicus, UniProt P25095); assay: Inhibitory action against the binding with angiotensin II (AII) receptor, 125I-AII competition on cultured rat aortic smooth muscle cells; parameters: species or system male Wistar rat; details: 50% substitution of ¹²⁵I-AII specific binding; ¹²⁵I-AII 2 x 10⁻¹⁰M; one hour at room temperature; rat vascular smooth muscle cells; read-out: IC₅₀
T1 construct: Vascular smooth muscle cells, which had been separated from the aorta of a male Wistar rat and cultured on a 24-well multiplate; endogenous in cells; host or cells: primary cultured vascular smooth muscle cells from the aorta of a male Wistar rat
T1 sequence (P25095 1-359): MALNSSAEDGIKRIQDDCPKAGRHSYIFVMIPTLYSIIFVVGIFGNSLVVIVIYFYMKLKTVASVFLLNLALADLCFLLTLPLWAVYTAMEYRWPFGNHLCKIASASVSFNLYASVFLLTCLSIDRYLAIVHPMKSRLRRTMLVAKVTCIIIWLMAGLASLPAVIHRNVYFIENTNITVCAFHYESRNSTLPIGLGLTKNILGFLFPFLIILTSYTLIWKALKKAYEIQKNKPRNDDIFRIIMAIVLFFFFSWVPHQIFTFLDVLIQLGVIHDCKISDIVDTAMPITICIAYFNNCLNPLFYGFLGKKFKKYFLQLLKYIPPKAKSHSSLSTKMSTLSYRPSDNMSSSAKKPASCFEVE
Description: (1) Inhibitory action against the binding with angiotensin II (AII) receptor, using cultured rat aortic smooth muscle cells The present test was conducted in accordance with the method reported by Chiu et al. in European Journal of Pharmacology, 157, 13-21(1988), though after some modifications. […] To each well, ¹²⁵I-AII (final concentration: 2 x 10⁻¹⁰M) was added together with or without a test compound to give a total volume of 0.2 mℓ. Then the wells were incubated for one hour at room temperature to make the ¹²⁵I-AII and the test compound competitively bind to the vascular smooth muscle cells. Each well was thereafter washed with an ice-cold buffer three times to remove unbound ¹²⁵I-AII. To the cells, 0.2 mℓ of a 1 mol/ℓ solution of sodium hydroxide was added to solubilize the bound ¹²⁵I-AII. A bound amount of ¹²⁵I-AII contained in the resulting cell solution was measured by a gamma counter. The above test was conducted for each compound at different concentrations of 3 doses or more. The inhibition rate against the specific binding with ¹²⁵I-AII at each concentration was calculated in accordance with an equation to be set out subsequently herein.

[3] = test system: angiotensin II contraction in longitudinal ileac muscles; assay: Inhibitory activity to angiotensin II contraction in longitudinal ileac muscles excised from a guinea pig; type: cell-based, Hartley male guinea pig; details: Cavia porcellus, 20 min; 50% contraction inhibition concentration; 10⁻⁸M angiotensin II; test compound reacted for 20 minutes; guinea pig ileum longitudinal muscle; read-out: IC₅₀
Description: (2) Inhibitory activity to angiotensin II contraction in longitudinal ileac muscles excised from a guinea pig
A Hartley male guinea pig (350-450 g in weight) was sacrificed under exsanguination, followed by the excision of its ileum.
A longitudinal muscle tissue (2 cm long) was prepared from the ileum in a manner known per se in the art. The sample was suspended in a 20-mℓ Magnus cylinder filled with a Tylode solution [composition (mM): NaCℓ 137, KCℓ 2.7, CaCℓ₂ 1.88, MgCℓ₂ 1.1, NaH₂PO₄ 0.4, NaH₂CO₃ 11.8 and glucose 5.6). The Tylode solution was incubated at 37°C and saturated with a mixed gas consisting of 95% O₂ + 5% CO₂. Using an isometric transducer ("TB-611T", manufactured by Nihon Kohden Corporation), variations in contraction were measured. The measurement results were recorded on a computer ("PC-9801", manufactured by NEC Corporation).
Under a load of 0.5 g initial tension, the longitudinal muscle sample was equilibrated in a nutrient solution for about one hour while being washed therewith at intervals of 15 minutes. Then, contracture by the administration of 80 mM of KCℓ was repeated twice. After conforming that the contraction occurred stably, the following test was conducted.
First, 10^-8M angiotensin II was administered to the sample and its maximum contraction was recorded. The test compound was then administered to the sample and they were reacted for 20 minutes. Administered again was 10⁻⁸M angiotensin II and the maximum contraction was measured. […] This test was repeated at increased concentrations of the test compound. A 50% contraction inhibition concentration (IC₅₀) was determined in accordance with a linear regressive calculation of the contraction inhibition rates.

[4] = test system: renal hypertensive rats; assay: Antihypertensive action on renal hypertensive rats (non-invasive); type: in vivo, male SD rat; details: decreased rate of systolic blood pressure; orally administered at 10 mg/kg; non-invasive sphygmomanometer
From the text: (3) Antihypertensive action on renal hypertensive rats (non-invasive)
Renal hypertensive rats were each prepared by constricting the left renal artery of a male SD rat (age: 6 weeks old, body weight: 200-220 g) with a silver clip (inner diameter: 0.017 inch) under anesthesia. The rats whose systolic blood pressure arose to 160 mmHg or higher in 4-8 weeks after the constriction of the renal artery were used for the test. The rats were maintained on food and water ad libitum until immediately before the test was started. Each test compound which was suspended in 0.5% methyl cellulose was orally administered at 10 mg/kg. After the administration of the test compound, the systolic blood pressure was measured periodically by a non-invasive sphygmomanometer ("BP-98", manufactured by SOFTLON K.K.). In accordance with the following equation, a decreased rate of blood pressure (%) was calculated from the blood pressure values before and after the administration of the compound. [formula]

| Compound | Maximum action (%) [1] | pIC50 [2] | pIC50 [3] | Maximum action (%) [4] |
| --- | --- | --- | --- | --- |
| CCc1nn(Cc2ccc(-c3ccccc3-c3nnn[nH]3)cc2)c(=NC(=O)c2ccccc2C(=O)O)s1 [Compound No.126, N-[5-Ethyl-3-[2'-(1H-tetrazol-5-yl)biphenyl-4-yl]methyl-1,3,4-thiadiazoline-2-yliden]phthalamic acid] | 27.6% | 7.49 | – | – |
| CCc1nn(Cc2ccc(-c3ccccc3-c3nn[nH]n3)cc2)c(=NC(=O)C2CCCCC2C(=O)O)s1 (racemic) [Compound No.158, cis-2-[[5-Ethyl-3-[2'-(1H-tetrazol-5-yl)biphenyl-4-yl]methyl-1,3,4-thiadiazoline-2-yliden]aminocarbonyl] cyclohxanecarboxylic acid] | 38.4% | – | 9.29 | – |
| CCCc1nn(Cc2ccc(-c3ccccc3-c3nnn[nH]3)cc2)c(=NC(=O)C2CC2)s1 [Compound No.21, 2-Cyclopropylcarbonylimino-5-n-propyl-3-[2'-(1H-tetrazol-5-yl)biphenyl-4-yl]methyl-1,3,4-thiadiazoline] | – | – | 8.10 | 26.3% |
| CCc1nn(Cc2ccc(-c3ccccc3-c3nnn[nH]3)cc2)c(=NC(=O)C2=C(C(=O)O)CCC2)s1 [Compound No.130, 2-[[5-Ethyl-3-[2'-(1H-tetrazol-5-yl)biphenyl-4-yl]methyl-1,3,4-thiadiazoline-2-yliden]aminocarbonyl]-1-cyclopenten carboxylic acid] | 41.2% | – | 9.19 | – |
| Cc1nn(Cc2ccc(-c3ccccc3-c3nnn[nH]3)cc2)c(=NC(=O)C2CC2)s1 [Compound No.17, 2-Cyclopropylcarbonylimino-5-methyl-3-[2'-(1H-tetrazol-5-yl)biphenyl-4-yl]methyl-1,3,4-thiadiazoline] | – | – | 8.12 | 25.9% |
| O=C(O)c1csc(=NC(=O)C2CC2)n1Cc1ccc(-c2ccccc2-c2nnn[nH]2)cc1 [Compound No.242, 2-Cyclopropylcarbonylimino-3-[2'-(1H-tetrazol-5-yl)biphenyl-4-yl]methylthiazoline-4-carboxylic acid] | 29.5% | 7.89 | – | – |
